IC50 data for five molecules are collected here from PubChem BioAssay AID1963845 (Molecular Pharmacology Branch, DTP, NCI, 2024).

Where only a bound is given, the exact number is not on record here.
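Further: luminescence signal used as surrogate measure of viable cells; spheroids exposed to compounds for seven days before readout.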

One test concerns 429239-143-T-J1-PDC complex spheroid viability. The test is described as follows: Anticancer human tumor 429239-143-T-J1-PDC patient-derived small cell lung carcinoma cell line growth inhibition [POLQ]. The following applies: curve of first compound; second compound 0.0316 µM. A digest of the protocol: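 Patient-derived tumour cells were co-cultured with HUVEC and mesenchymal stem cells as multicellular spheroids at 37 °C. They were treated with POLQ inhibitors (novobiocin, ART-558, RP6685) alone or combined with other agents. Top concentrations were at or near clinical Cmax (otherwise 10 microM; SN-38 at 1 microM), decreasing in half-log steps.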
As for `C#Cc1c(F)ccc2cc(O)cc(-c3ncc4c(N5CC6CCC(C5)N6)nc(OCC56CCCN5CC(F)C6)nc4c3F)c12` (stereo unspecified) + Cc1cccc(N(C)C(=O)C2C(O)CCN2c2nc(C)cc(C(F)(F)F)c2C#N)c1, the IC50 (usually the concentration that inhibits the measured activity by half) is above 10000 nM.
Turning to `CC1COCCN1c1cc(-c2ccnn2C)c2ccnc(-c3ccn[nH]3)c2n1` (stereo unspecified) + Cc1cccc(N(C)C(=O)C2C(O)CCN2c2nc(C)cc(C(F)(F)F)c2C#N)c1, the IC50 is 135 nM.
Take `COc1cc2cc(C(=O)CCC(=O)O)sc2cc1OC` + Cc1cccc(N(C)C(=O)C2C(O)CCN2c2nc(C)cc(C(F)(F)F)c2C#N)c1: the IC50 is above 10000 nM.
`CC1COCCN1c1cc(-c2ccnn2C)c2ccnc(-c3ccn[nH]3)c2n1` (stereo unspecified) + Nc1ccc(C#CCN(C(=O)Cc2ncc(C(F)(F)F)cc2C(F)(F)F)c2ccc(F)cc2)nn1: the IC50 was found to be 545 nM.
With `COc1cccc2c1C(=O)c1c(O)c3c(c(O)c1C2=O)CC(O)(C(=O)CO)CC3OC1CC(N)C(O)C(C)O1` (stereo unspecified) + Nc1ccc(C#CCN(C(=O)Cc2ncc(C(F)(F)F)cc2C(F)(F)F)c2ccc(F)cc2)nn1, the IC50 stood at 75.7 nM.

The test is the same for the next values; noted with them: curve of first compound; second compound 0.1 µM.
`C#Cc1c(F)ccc2cc(O)cc(-c3ncc4c(N5CC6CCC(C5)N6)nc(OCC56CCCN5CC(F)C6)nc4c3F)c12` (stereo unspecified) + Cc1cccc(N(C)C(=O)C2C(O)CCN2c2nc(C)cc(C(F)(F)F)c2C#N)c1: the IC50 is above 10000 nM.
Take `CC1COCCN1c1cc(-c2ccnn2C)c2ccnc(-c3ccn[nH]3)c2n1` (stereo unspecified) + Cc1cccc(N(C)C(=O)C2C(O)CCN2c2nc(C)cc(C(F)(F)F)c2C#N)c1: the IC50 stood at 121 nM.
On the same count and under the same terms, in the case of `COc1cc2cc(C(=O)CCC(=O)O)sc2cc1OC` + Cc1cccc(N(C)C(=O)C2C(O)CCN2c2nc(C)cc(C(F)(F)F)c2C#N)c1 it was above 10000 nM; in that of `CC1COCCN1c1cc(-c2ccnn2C)c2ccnc(-c3ccn[nH]3)c2n1` (stereo unspecified) + Nc1ccc(C#CCN(C(=O)Cc2ncc(C(F)(F)F)cc2C(F)(F)F)c2ccc(F)cc2)nn1, 469 nM.
In the case of `COc1cccc2c1C(=O)c1c(O)c3c(c(O)c1C2=O)CC(O)(C(=O)CO)CC3OC1CC(N)C(O)C(C)O1` (stereo unspecified) + Nc1ccc(C#CCN(C(=O)Cc2ncc(C(F)(F)F)cc2C(F)(F)F)c2ccc(F)cc2)nn1, the IC50 worked out at 81.6 nM.

Still in this test, the particulars now being: curve of first compound; second compound 0.316 µM.
On to `C#Cc1c(F)ccc2cc(O)cc(-c3ncc4c(N5CC6CCC(C5)N6)nc(OCC56CCCN5CC(F)C6)nc4c3F)c12` (stereo unspecified) + Cc1cccc(N(C)C(=O)C2C(O)CCN2c2nc(C)cc(C(F)(F)F)c2C#N)c1, for which the IC50 is above 10000 nM.
Regarding `CC1COCCN1c1cc(-c2ccnn2C)c2ccnc(-c3ccn[nH]3)c2n1` (stereo unspecified) + Cc1cccc(N(C)C(=O)C2C(O)CCN2c2nc(C)cc(C(F)(F)F)c2C#N)c1, the IC50 was determined as 128 nM.
Regarding `COc1cc2cc(C(=O)CCC(=O)O)sc2cc1OC` + Cc1cccc(N(C)C(=O)C2C(O)CCN2c2nc(C)cc(C(F)(F)F)c2C#N)c1, the IC50 was above 10000 nM.
Take `CC1COCCN1c1cc(-c2ccnn2C)c2ccnc(-c3ccn[nH]3)c2n1` (stereo unspecified) + Nc1ccc(C#CCN(C(=O)Cc2ncc(C(F)(F)F)cc2C(F)(F)F)c2ccc(F)cc2)nn1: the IC50 worked out at 466 nM.
Same read-out and setting: under `COc1cccc2c1C(=O)c1c(O)c3c(c(O)c1C2=O)CC(O)(C(=O)CO)CC3OC1CC(N)C(O)C(C)O1` (stereo unspecified) + Nc1ccc(C#CCN(C(=O)Cc2ncc(C(F)(F)F)cc2C(F)(F)F)c2ccc(F)cc2)nn1 stands 109 nM.

The test is the same for the next values; noted with them: curve of first compound; second compound 1 µM.
As to `C#Cc1c(F)ccc2cc(O)cc(-c3ncc4c(N5CC6CCC(C5)N6)nc(OCC56CCCN5CC(F)C6)nc4c3F)c12` (stereo unspecified) + Cc1cccc(N(C)C(=O)C2C(O)CCN2c2nc(C)cc(C(F)(F)F)c2C#N)c1, the IC50 was above 10000 nM.
`CC1COCCN1c1cc(-c2ccnn2C)c2ccnc(-c3ccn[nH]3)c2n1` (stereo unspecified) + Cc1cccc(N(C)C(=O)C2C(O)CCN2c2nc(C)cc(C(F)(F)F)c2C#N)c1: the concentration for half-maximal inhibition (IC50) came to 88.5 nM.
With `COc1cc2cc(C(=O)CCC(=O)O)sc2cc1OC` + Cc1cccc(N(C)C(=O)C2C(O)CCN2c2nc(C)cc(C(F)(F)F)c2C#N)c1, the IC50 is above 10000 nM.
For `CC1COCCN1c1cc(-c2ccnn2C)c2ccnc(-c3ccn[nH]3)c2n1` (stereo unspecified) + Nc1ccc(C#CCN(C(=O)Cc2ncc(C(F)(F)F)cc2C(F)(F)F)c2ccc(F)cc2)nn1, the half-maximal inhibitory concentration (IC50) is 373 nM.
The same measure, in the same setting: under `COc1cccc2c1C(=O)c1c(O)c3c(c(O)c1C2=O)CC(O)(C(=O)CO)CC3OC1CC(N)C(O)C(C)O1` (stereo unspecified) + Nc1ccc(C#CCN(C(=O)Cc2ncc(C(F)(F)F)cc2C(F)(F)F)c2ccc(F)cc2)nn1 stands 73.9 nM.

The test is the same for the next values; noted with them: curve of first compound; second compound 3.16 µM.
`C#Cc1c(F)ccc2cc(O)cc(-c3ncc4c(N5CC6CCC(C5)N6)nc(OCC56CCCN5CC(F)C6)nc4c3F)c12` (stereo unspecified) + Cc1cccc(N(C)C(=O)C2C(O)CCN2c2nc(C)cc(C(F)(F)F)c2C#N)c1: the IC50 is above 10000 nM.
The same measure, in the same setting: under `CC1COCCN1c1cc(-c2ccnn2C)c2ccnc(-c3ccn[nH]3)c2n1` (stereo unspecified) + Cc1cccc(N(C)C(=O)C2C(O)CCN2c2nc(C)cc(C(F)(F)F)c2C#N)c1 stands 90.9 nM.
As to `COc1cc2cc(C(=O)CCC(=O)O)sc2cc1OC` + Cc1cccc(N(C)C(=O)C2C(O)CCN2c2nc(C)cc(C(F)(F)F)c2C#N)c1, the IC50 was above 10000 nM.
For the molecule `CC1COCCN1c1cc(-c2ccnn2C)c2ccnc(-c3ccn[nH]3)c2n1` (stereo unspecified) + Nc1ccc(C#CCN(C(=O)Cc2ncc(C(F)(F)F)cc2C(F)(F)F)c2ccc(F)cc2)nn1, the IC50 came to 343 nM.
Same read-out and setting: under `COc1cccc2c1C(=O)c1c(O)c3c(c(O)c1C2=O)CC(O)(C(=O)CO)CC3OC1CC(N)C(O)C(C)O1` (stereo unspecified) + Nc1ccc(C#CCN(C(=O)Cc2ncc(C(F)(F)F)cc2C(F)(F)F)c2ccc(F)cc2)nn1 stands 70 nM.

The same test, now with this note: curve of first compound; second compound 10 µM.
Consider `C#Cc1c(F)ccc2cc(O)cc(-c3ncc4c(N5CC6CCC(C5)N6)nc(OCC56CCCN5CC(F)C6)nc4c3F)c12` (stereo unspecified) + Cc1cccc(N(C)C(=O)C2C(O)CCN2c2nc(C)cc(C(F)(F)F)c2C#N)c1, for which the IC50 was above 10000 nM.
